Data on four compounds can be found in ChEMBL document CHEMBL1142619, “Three new flavonol galloylglycosides from leaves of Acacia confusa” (J Nat Prod, 2000).

By IC50 is commonly meant the concentration needed to halve the response being measured.

Values after ≈ are worked out from the molar mass of the structure shown.

In the experiment the test system is Artemia salina. Description: Toxicity in Artemia salina assessed as inhibition of egg hatching after 48 hrs. The class given is organism-based.
Consider `COc1cc(O)c2c(=O)c(O[C@H]3O[C@H](C)[C@@H](O)[C@H](O)[C@@H]3OC(=O)c3cc(O)c(O)c(O)c3)c(-c3cc(O)c(O)c(O)c3)oc2c1`, for which the IC50 was 89 µg/mL (≈ 141 µM).
The result for `C[C@H]1O[C@H](Oc2c(-c3cc(O)c(O)c(O)c3)oc3cc(O)cc(O)c3c2=O)[C@@H](OC(=O)c2cc(O)c(O)c(O)c2)[C@@H](O)[C@@H]1O` reads 75 µg/mL (≈ 122 µM); that for `COc1cc(O)c2c(=O)c(O[C@H]3O[C@H](C)[C@@H](O)[C@H](OC(=O)c4cc(O)c(O)c(O)c4)[C@@H]3O)c(-c3cc(O)c(O)c(O)c3)oc2c1`, 50 µg/mL (≈ 79.3 µM).
As to `C[C@H]1O[C@H](Oc2c(-c3cc(O)c(O)c(O)c3)oc3cc(O)cc(O)c3c2=O)[C@@H](O)[C@@H](OC(=O)c2cc(O)c(O)c(O)c2)[C@@H]1O`, the IC50 came to 64 µg/mL (≈ 104 µM).
